Source: US20260022352A1, “COMPOSITIONS AND METHODS FOR PURIFYING […]” (North Carolina State University, priority 2023, published 2026)
Values joined by “and” are separate entries in the source; they are usually repeats but may differ in a detail not shown here. Equal values may be shown once. Where no end group is shown, it is not given here.

Assays:
[1] = test system: LVV particles; type: binding, lentivirus
[2] = test system: LVV particles; design: species or system lentivirus
[3] = test system: LVV particles; design: species or system lentivirus; remark: listed apart in the source

In the case of “SRAFVGDADRD-Poros: peptide SRAFVGDADRD (SEQ ID NO: 4) conjugated on aminated Poros resin (also: conjugated to aminated Poros resin, site not given here)”, the “DBC10% (vg/mL), real time qPCR” value [1] is reported as 6.89·10^9 vg/mL.
In the case of SFVRIGLSD, the “binding capacity (summary)” value [1] is reported as ~6.24·10^9 TU per mL of resin and the “LVV adsorbed (binding capacity) across cycles” value (from here on “LVV adsorbed”) [2] is reported as ~10^9 TU/mL.
SRAFVGDADRD was tested, and the “binding capacity (summary)” value [1] was ~6.24·10^9 TU per mL of resin and the “LVV adsorbed” value [2] was ~10^9 TU/mL.
For GKEAAFAA, the “DBC10% (TU per mL of resin)” value [3] was 5.3 · 10^9 TU per mL of resin and 3.9 · 10^9 TU per mL of resin and 4.4 · 10^9 TU per mL of resin and 3.7 · 10^9 TU per mL of resin and the “LVV adsorbed” value [2] was > 10^9 TU/mL.
